Reference: PMC4396990, “Targeting Vascular Endothelial Growth Factor Receptor 2 and Protein Kinase D1 Related Pathways by a Multiple Kinase Inhibitor in Angiogenesis and Inflammation Related Processes In Vitro” (PLoS ONE, 2015)

Legend:
Assay type in all cases: biochemical
PKD2 = biological target: T1, PKD2 (Homo sapiens, UniProt Q9BZL6); experiment: kinase selectivity study (SignalChem) at single […] concentration
T1 construct: gene PRKD2
T1 sequence (Q9BZL6 1-878): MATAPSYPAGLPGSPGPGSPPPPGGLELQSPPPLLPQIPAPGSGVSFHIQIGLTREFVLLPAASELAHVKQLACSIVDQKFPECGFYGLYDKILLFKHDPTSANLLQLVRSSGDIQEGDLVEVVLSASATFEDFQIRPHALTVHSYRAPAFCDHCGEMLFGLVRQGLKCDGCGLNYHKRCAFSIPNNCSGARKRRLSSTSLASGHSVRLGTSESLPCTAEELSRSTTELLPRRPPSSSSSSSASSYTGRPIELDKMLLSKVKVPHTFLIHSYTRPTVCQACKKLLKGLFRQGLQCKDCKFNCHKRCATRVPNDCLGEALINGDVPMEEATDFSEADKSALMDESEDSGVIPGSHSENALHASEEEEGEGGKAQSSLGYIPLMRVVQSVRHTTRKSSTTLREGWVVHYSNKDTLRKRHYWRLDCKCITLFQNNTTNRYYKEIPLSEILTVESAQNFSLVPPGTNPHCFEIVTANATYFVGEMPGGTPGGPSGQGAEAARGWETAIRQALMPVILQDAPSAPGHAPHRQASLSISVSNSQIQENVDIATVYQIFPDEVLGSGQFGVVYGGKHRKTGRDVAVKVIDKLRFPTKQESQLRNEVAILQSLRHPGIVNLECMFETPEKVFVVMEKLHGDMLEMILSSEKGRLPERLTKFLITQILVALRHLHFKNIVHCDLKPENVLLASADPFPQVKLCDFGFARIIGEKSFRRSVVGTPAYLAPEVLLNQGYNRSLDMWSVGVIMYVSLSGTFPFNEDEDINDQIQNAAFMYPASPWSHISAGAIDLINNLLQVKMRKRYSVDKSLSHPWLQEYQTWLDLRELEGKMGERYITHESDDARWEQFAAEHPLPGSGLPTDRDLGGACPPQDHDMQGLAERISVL

VEGFR1 = biological target: T2, VEGFR1 (Homo sapiens, UniProt P17948); experiment: recombinant kinase assay (ProQinase) at single […] concentration
T2 construct: gene FLT1
T2 sequence (P17948 27-1338): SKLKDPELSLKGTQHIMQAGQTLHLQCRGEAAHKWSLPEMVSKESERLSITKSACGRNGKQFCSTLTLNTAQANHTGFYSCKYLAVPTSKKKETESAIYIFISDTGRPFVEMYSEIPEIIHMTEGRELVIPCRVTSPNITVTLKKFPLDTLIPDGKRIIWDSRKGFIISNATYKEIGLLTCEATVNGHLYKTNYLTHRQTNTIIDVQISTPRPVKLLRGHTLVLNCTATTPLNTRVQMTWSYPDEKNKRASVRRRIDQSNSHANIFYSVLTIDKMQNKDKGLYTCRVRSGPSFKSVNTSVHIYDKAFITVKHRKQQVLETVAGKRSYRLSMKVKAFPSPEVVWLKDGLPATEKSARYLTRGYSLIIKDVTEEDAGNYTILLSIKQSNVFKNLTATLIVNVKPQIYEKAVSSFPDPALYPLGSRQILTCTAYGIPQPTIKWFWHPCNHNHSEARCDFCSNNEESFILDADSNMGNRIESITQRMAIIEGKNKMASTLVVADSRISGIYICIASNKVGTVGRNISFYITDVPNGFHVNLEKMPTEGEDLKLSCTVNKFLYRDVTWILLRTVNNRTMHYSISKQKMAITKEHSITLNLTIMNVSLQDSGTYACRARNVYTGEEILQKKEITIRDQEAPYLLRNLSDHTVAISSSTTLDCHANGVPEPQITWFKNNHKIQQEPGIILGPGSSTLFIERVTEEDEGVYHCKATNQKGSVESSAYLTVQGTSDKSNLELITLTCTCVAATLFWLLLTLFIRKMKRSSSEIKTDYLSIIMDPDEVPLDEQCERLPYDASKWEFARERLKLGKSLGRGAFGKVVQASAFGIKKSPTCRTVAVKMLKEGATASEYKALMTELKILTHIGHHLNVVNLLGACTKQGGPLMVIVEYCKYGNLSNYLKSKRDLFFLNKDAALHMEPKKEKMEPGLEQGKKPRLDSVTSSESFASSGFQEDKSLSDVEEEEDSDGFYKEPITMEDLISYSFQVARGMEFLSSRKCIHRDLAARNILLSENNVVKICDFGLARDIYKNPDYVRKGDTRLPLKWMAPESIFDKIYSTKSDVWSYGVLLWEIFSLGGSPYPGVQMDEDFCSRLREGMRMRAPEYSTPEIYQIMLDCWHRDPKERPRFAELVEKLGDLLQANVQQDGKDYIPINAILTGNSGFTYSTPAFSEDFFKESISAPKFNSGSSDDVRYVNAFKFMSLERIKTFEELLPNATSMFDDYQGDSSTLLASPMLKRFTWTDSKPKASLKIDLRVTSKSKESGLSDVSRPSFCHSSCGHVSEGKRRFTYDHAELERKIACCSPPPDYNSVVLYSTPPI

VEGFR2 = biological target: T3, VEGFR2 (Homo sapiens, UniProt P35968); experiment: recombinant kinase assay (Transcreener ADP detection)
T3 construct: gene KDR
T3 sequence (P35968 20-1356): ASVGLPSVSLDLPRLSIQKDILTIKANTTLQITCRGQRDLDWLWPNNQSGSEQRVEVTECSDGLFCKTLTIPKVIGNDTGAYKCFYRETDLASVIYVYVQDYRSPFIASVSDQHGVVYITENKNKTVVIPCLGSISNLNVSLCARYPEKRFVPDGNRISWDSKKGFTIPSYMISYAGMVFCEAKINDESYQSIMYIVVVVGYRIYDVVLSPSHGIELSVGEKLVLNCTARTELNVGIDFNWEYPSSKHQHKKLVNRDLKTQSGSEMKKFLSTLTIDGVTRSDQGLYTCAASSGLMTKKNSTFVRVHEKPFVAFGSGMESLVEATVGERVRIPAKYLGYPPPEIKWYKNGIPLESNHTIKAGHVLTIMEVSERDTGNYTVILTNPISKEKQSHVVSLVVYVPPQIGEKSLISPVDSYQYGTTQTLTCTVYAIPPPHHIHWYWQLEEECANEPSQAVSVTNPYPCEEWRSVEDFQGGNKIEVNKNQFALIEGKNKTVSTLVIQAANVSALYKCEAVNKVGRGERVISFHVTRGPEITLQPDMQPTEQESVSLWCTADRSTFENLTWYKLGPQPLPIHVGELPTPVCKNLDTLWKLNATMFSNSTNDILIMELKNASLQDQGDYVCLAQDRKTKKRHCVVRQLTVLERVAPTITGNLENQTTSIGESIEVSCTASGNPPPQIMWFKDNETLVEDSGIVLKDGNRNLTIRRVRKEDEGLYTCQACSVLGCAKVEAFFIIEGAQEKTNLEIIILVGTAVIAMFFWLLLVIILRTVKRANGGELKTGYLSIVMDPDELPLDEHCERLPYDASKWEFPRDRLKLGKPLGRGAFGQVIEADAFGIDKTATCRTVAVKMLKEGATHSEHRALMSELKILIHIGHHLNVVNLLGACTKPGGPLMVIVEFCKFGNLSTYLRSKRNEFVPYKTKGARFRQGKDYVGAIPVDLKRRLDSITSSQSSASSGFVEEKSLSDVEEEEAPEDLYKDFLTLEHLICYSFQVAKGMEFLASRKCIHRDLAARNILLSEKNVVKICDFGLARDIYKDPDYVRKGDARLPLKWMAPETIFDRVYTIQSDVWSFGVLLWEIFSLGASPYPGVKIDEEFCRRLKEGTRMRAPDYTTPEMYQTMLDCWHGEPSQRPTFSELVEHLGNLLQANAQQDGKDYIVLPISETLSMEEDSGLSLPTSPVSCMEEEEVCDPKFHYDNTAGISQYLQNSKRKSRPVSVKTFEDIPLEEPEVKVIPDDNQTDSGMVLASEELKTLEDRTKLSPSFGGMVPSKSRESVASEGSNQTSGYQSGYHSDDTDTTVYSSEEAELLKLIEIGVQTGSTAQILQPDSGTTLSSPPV

PKD1 = biological target: T4, PKD1 (Homo sapiens, UniProt Q15139); experiment: recombinant kinase assay (IMAP fluorescence polarization, TAMRA-peptide)
T4 construct: gene PRKD1
T4 sequence (Q15139 1-912): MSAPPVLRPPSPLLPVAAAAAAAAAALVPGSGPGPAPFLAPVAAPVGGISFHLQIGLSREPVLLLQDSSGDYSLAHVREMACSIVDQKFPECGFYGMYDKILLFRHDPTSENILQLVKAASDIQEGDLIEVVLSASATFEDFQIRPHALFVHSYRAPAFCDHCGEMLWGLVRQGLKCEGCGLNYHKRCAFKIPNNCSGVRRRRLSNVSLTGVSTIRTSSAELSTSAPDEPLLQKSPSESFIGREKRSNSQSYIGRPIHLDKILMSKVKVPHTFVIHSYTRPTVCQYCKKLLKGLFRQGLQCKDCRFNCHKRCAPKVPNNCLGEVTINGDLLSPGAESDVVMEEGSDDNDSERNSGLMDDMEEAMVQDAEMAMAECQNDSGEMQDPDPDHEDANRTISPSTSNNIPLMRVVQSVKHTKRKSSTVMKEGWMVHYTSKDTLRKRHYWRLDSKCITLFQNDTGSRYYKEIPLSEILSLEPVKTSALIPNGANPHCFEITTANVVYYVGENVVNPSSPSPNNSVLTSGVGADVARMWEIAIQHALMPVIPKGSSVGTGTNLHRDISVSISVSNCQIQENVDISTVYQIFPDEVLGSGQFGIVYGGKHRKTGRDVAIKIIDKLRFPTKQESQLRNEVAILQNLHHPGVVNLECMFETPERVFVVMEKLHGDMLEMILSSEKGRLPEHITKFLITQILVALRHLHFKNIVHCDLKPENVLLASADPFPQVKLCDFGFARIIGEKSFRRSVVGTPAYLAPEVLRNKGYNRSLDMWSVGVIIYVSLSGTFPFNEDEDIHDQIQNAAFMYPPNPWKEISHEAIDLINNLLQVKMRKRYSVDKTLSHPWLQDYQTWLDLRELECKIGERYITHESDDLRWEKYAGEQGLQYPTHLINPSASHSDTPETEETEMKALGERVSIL

VEGFR3 = biological target: T5, VEGFR3 (Homo sapiens, UniProt P35916); experiment: recombinant kinase assay (ProQinase) at single […] concentration
T5 construct: gene FLT4
T5 sequence (P35916 25-1363): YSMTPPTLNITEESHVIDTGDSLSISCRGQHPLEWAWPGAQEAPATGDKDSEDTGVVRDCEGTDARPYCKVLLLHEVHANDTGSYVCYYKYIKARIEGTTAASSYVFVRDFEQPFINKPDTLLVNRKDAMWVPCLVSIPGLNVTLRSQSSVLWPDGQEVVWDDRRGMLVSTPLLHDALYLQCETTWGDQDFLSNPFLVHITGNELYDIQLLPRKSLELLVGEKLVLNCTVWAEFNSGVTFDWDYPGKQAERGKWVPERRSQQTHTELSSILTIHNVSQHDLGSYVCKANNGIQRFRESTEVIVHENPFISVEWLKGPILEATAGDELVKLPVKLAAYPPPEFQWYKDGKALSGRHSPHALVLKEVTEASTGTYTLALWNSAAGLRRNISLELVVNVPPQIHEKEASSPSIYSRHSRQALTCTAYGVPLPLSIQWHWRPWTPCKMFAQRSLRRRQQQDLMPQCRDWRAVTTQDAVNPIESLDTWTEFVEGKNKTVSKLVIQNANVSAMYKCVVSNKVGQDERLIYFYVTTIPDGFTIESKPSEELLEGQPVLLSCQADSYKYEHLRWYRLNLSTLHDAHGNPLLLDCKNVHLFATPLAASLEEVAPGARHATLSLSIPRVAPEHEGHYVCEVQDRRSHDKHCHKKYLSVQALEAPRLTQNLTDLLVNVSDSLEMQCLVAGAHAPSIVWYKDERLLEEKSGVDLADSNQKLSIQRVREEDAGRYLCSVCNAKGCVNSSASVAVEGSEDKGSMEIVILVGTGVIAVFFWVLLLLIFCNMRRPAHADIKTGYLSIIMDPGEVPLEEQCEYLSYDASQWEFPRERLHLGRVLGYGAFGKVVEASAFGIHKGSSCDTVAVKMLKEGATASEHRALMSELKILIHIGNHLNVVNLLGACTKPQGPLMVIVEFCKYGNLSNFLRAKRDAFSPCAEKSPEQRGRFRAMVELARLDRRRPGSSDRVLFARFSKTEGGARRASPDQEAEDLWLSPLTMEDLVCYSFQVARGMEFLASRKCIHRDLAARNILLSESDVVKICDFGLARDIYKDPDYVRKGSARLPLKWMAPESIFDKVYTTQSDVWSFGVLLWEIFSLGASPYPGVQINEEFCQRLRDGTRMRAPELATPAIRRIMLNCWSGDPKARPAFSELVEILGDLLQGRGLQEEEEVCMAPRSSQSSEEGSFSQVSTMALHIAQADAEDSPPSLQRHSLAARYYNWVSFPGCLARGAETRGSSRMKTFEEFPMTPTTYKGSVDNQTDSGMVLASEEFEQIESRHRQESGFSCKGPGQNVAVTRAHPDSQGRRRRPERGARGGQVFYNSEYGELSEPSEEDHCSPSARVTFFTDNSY

CCn1c(=O)ccc2cnc(Nc3ccc(N4CCN(C)CC4)cc3)nc21 [VCC251801]
kinase selectivity study (SignalChem) at single 5 μM concentration (PKD2): it showed moderate inhibitory effect against the other PKD isoform, PKD2
recombinant kinase assay (ProQinase) at single 1 μM concentration (VEGFR1): In this selectivity study, VCC251801 blocked both VEGFR1 and VEGFR3 activation
IC50 (VEGFR2): 69 nM
IC50 (PKD1): 28 nM
recombinant kinase assay (ProQinase) at single 1 μM concentration (VEGFR3): In this selectivity study, VCC251801 blocked both VEGFR1 and VEGFR3 activation
